{"source": "patent US4849421A", "about": "“Anti-anxiety benzothiepino(5,4-c]pyridazines” (Yoshitomi Pharmaceutical Industries, Ltd., priority 1987, dated 1989)", "key": {"[1]": {"target": "benzodiazepine receptor", "test": "Displacement ability for benzodiazepine receptor ([3H]diazepam binding)", "parameters": "species or system Wistar rats (cerebral cortex, crude synaptosomal fraction)", "conditions": "tritiated diazepam 2 nM, 0° C., 20 minutes, pH 7.4, rat cerebral cortex", "method": "Compound J: 8-chloro-2-(4-chlorophenyl)-5,6-dihydro-[1]benzothiepino[5,4-c]pyridazin-3(2H)-one 7-oxide Experiment 1: Displacement ability for benzodiazepine receptor:\nExperiment on the specific binding for benzodiazepine receptor was performed according to the method described in Life Science, vol. 20, p. 2101 (1977).\nA crude synaptosomal fraction was isolated from the cerebral cortex of 9 to 10 week-old male Wistar rats and suspended in 50 mM of Tris-hydrochloric acid buffer solution (pH 7.4) containing 120 mM of sodium chloride and 5 mM of potassium chloride.\nTo the synaptosomal suspension as prepared above were added various concentrations of test compounds and tritiated diazepam (final concentration: 2 nM), and the mixture was incubated at 0° C. for 20 minutes. Then the suspension was filtered through Whatman GF/B glass fiber filter. After the filter was washed with the foregoing buffer solution, the radioactivity left on the filter was measured by a liquid scintillation spectrometry.\nSpecific binding was determined by subtracting binding in the presence of 10^-6 M unlabelled diazepam from total binding.\nThe affinity of the test compounds of the present invention for benzodiazepine receptor is evaluated as an ability to displace tritiated diazepam from the binding site, and is represented as Ki value."}, "[2]": {"tested_on": "bicuculline-induced tonic convulsion", "test": "Anti-bicuculline effect", "format": "in vivo, male ddY-strain mice", "conditions": "Mus musculus, po; mice, p.o. 1 hour before (+)bicuculline 0.6 mg/kg i.v.; tonic convulsion within 5 minutes", "method": "Experiment 2: Anti-bicuculline effect:\nThe experiment of anti-bicuculline effect was performed according to the method described in Life Science, vol. 21, p. 1779 (1977).\nGroups of 7-14 male ddY-strain mice weighing 20-28 g were used. (+)Bicuculline (0.6 mg/kg) was intraveneously administered 1 hour after the oral administration of test compound, and the ED50, 50% effective dose, was determined by observing the existence of tonic convulsion within 5 minutes."}, "[3]": {"tested_on": "righting reflex", "test": "Potentiation of alcoholic effect (ethanol)", "format": "in vivo, male mice", "conditions": "mice, oral, 1 hour before 30% ethanol 0.1 ml/10 g i.p.; loss of righting reflex", "method": "Experiment 6: Potentiation of alcoholic effect:\n(§1) Groups of 14 male mice, which were set in a room kept at 26° C., were administered orally with test compound and an hour later administered intraperitoneally with 0.1 ml/10 g of 30% ethanol. The righting reflex was tested at 15 and 30 minutes after ethanol treatment. The ED50 (mg/kg) was calculated by the probit method as the dose which caused loss of righting reflex for more than 3 seconds in half the mice."}, "[4]": {"tested_on": "number of shock in the punished period", "test": "Anti-anxiety effect (anti-conflict test, Skinner-box)", "format": "in vivo, male rats", "conditions": "Rattus norvegicus; rats, oral; significant increment of number of shock in the punished period; read-out: Anti-anxiety effect MED", "method": "Experiment 3: Anti-anxiety effect:\nThe experiment was carried out by using groups of 8 male rats which were maintained at approximately 80% of their free food weights by reducing food and employing a Skinner-box equipped with lever on the side and a grid on the floor.\nThe rats were placed in the Skinner-box and trained to press a lever in order to obtain milk. According to this training, the rats could obtain 0.1 ml of milk once by pressing the lever twenty times (Fix-ratio 20 reinforcement schedule, FR20).\nAfter the rats was trained to obtain milk for 10 minutes according to FR20 (this period was hereinafter referred to as unpunished period), loud noise was given to the rats for 5 minutes (this period was hereinafter referred to as punished period). In this punished period, the rats could obtain milk everytime when they pushed the lever once, and also received a foot shock (AC 100V, 0.4-0.8 mA) for 0.3 second through the grid.\nAccording to the repeated training of the unpunished period and the punished period, the animals which continuously pushed the lever in the unpunished period and rarely pushed, it in the punished period, and had the number of shock below 10 were provided to the experiment.\nAfter the rats were orally administered with a test compound in 0.5% methylcellulose, the unpunished period (10 minutes) and the punished period (5 minutes) were alternately performed four times to the rats. The number of push of the lever in the unpunished period in 40 minutes and the number of shock in the punished period in 20 minutes were measured, and minimum effective dose (MED, mg/kg) was determined as the dose which observable the significant increment of number of shock in the punished period with being compared to the control group."}, "[5]": {"tested_on": "muscle-relaxant effect", "test": "Muscle-relaxant effect (rotating rod)", "format": "in vivo, male mice", "conditions": "Mus musculus; mice, oral, 1 hour; rotating rod 11 rpm, drop within 1 minute", "method": "Experiment 4: Muscle-relaxant effect:\nGroups of 10 male mice each were administered orally with test compounds and an hour later placed on the rotating rod (2.8 cm in diameter) turning at a speed of 11 rpm. The ED50 (mg/kg) was calculated by the probit method as the dose which caused to drop the half number of mice from the rod within 1 minute."}, "[6]": {"tested_on": "righting reflex", "test": "Potentiation of narcotic effect (hexobarbital)", "format": "in vivo, male mice", "conditions": "mice, oral, 1 hour before hexobarbital 40 mg/kg i.p.; loss of righting reflex", "method": "Experiment 5: Potentiation of narcotic effect:\nas §1, with “40 mg/kg” for “0.1 ml/10 g”, “hexobarbital.” for “30% ethanol.”, “hexobarbital” for “ethanol”"}}, "data": [{"smiles": "O=c1cc2c(nn1-c1ccc(Cl)cc1)-c1ccccc1SCC2", "note": "[Compound A, 2-(4-chlorophenyl)-5,6-dihydro-[1]benzothiepino[5,4-c]pyridazin-3(2H)-one]", "values": [{"measurement": "Ki", "setting": "[1]", "value": 0.01, "unit": "µM"}, {"measurement": "ED50", "setting": "[2]", "value": 5.5, "unit": "mg/kg"}]}, {"smiles": "O=c1cc2c(nn1-c1ccc(Cl)cc1)-c1cc(Cl)ccc1[S+]([O-])CC2", "note": "(centres unmarked) [Compound B, 10-chloro-2-(4-chlorophenyl)-5,6-dihydro-[1]benzothiepino[5,4-c]pyridazin-3(2H)-one 7-oxide]", "values": [{"measurement": "Ki", "setting": "[1]", "value": 0.011, "unit": "µM"}, {"measurement": "ED50", "setting": "[2]", "value": 3.2, "unit": "mg/kg"}]}, {"smiles": "O=c1cc2c(nn1-c1ccc(Cl)cc1)-c1ccccc1[S+]([O-])CC2", "note": "(centres unmarked) [Compound C, 2-(4-chlorophenyl)-5,6-dihydro-[1]benzothiepino[5,4-c]pyridazin-3(2H)-one 7-oxide]", "values": [{"measurement": "Ki", "setting": "[1]", "value": 0.037, "unit": "µM"}, {"measurement": "Potentiation of alcoholic effect ED50", "setting": "[3]", "value": 44, "unit": "mg/kg"}, {"measurement": "ED50", "setting": "[2]", "value": 1.2, "unit": "mg/kg"}, {"measurement": "minimal effective dose", "setting": "[4]", "value": 2.5, "unit": "mg/kg"}, {"measurement": "ED50", "setting": "[5]", "value": 103, "unit": "mg/kg"}, {"measurement": "Potentiation of narcotic effect ED50", "setting": "[6]", "value": 113, "unit": "mg/kg"}]}, {"smiles": "O=C1CC2CC[S+]([O-])c3ccccc3C2=NN1c1ccc(Cl)cc1", "note": "(centres unmarked) [Compound D, 2-(4-chlorophenyl)-4,4a,5,6-tetrahydro-[1]benzothiepino[5,4-c]pyridazin-3(2H)-one 7-oxide]", "values": [{"measurement": "Ki", "setting": "[1]", "value": 0.045, "unit": "µM"}, {"measurement": "ED50", "setting": "[2]", "value": 4.5, "unit": "mg/kg"}]}, {"smiles": "O=c1cc2c(nn1-c1ccc(Cl)cc1)-c1cc(F)ccc1SCC2", "note": "[Compound E, 2-(4-chlorophenyl)-10-fluoro-5,6-dihydro[1]benzothiepino[5,4-c]pyridazin-3(2H)-one]", "values": [{"measurement": "Ki", "setting": "[1]", "value": 0.014, "unit": "µM"}, {"measurement": "ED50", "setting": "[2]", "value": 2.2, "unit": "mg/kg"}]}, {"smiles": "O=c1cc2c(nn1-c1ccc(Cl)cc1)-c1cc(F)ccc1[S+]([O-])CC2", "note": "(centres unmarked) [Compound F, 2-(4-chlorophenyl)-10-fluoro-5,6-dihydro-[1]benzothiepino[5,4-c]pyridazin-3(2H)-one 7-oxide]", "values": [{"measurement": "Ki", "setting": "[1]", "value": 0.036, "unit": "µM"}, {"measurement": "Potentiation of alcoholic effect ED50", "setting": "[3]", "value": 117, "unit": "mg/kg"}, {"measurement": "ED50", "setting": "[2]", "value": 0.72, "unit": "mg/kg"}, {"measurement": "minimal effective dose", "setting": "[4]", "value": "< 5", "unit": "mg/kg"}, {"measurement": "ED50", "setting": "[5]", "value": 107, "unit": "mg/kg"}, {"measurement": "Potentiation of narcotic effect ED50", "setting": "[6]", "value": 110, "unit": "mg/kg"}]}, {"smiles": "O=c1cc2c(nn1-c1ccc(Br)cc1)-c1ccccc1[S+]([O-])CC2", "note": "(centres unmarked) [Compound G, 2-(4-bromophenyl)-5,6-dihydro-[1]benzothiepino[5,4-c]pyridazin-3(2H)-one 7-oxide]", "values": [{"measurement": "Ki", "setting": "[1]", "value": 0.034, "unit": "µM"}, {"measurement": "ED50", "setting": "[2]", "value": 5.9, "unit": "mg/kg"}]}, {"smiles": "O=C1CC2CC[S+]([O-])c3ccccc3C2=NN1c1ccc(Br)cc1", "note": "(centres unmarked) [Compound H, 2-(4-bromophenyl)-4,4a,5,6-tetrahydro-[1]benzothiepino[5,4-c]pyridazin-3(2H)-one 7-oxide]", "values": [{"measurement": "Ki", "setting": "[1]", "value": 0.044, "unit": "µM"}, {"measurement": "ED50", "setting": "[2]", "value": 4.5, "unit": "mg/kg"}]}, {"smiles": "O=c1cc2c(nn1-c1ccc(F)cc1)-c1cc(F)ccc1SCC2", "note": "[Compound I, 10-fluoro-2-(4-fluorophenyl)-5,6-dihydro-[1]benzothiepino[5,4-c]pyridazin-3(2H)-one]", "values": [{"measurement": "Ki", "setting": "[1]", "value": 0.043, "unit": "µM"}, {"measurement": "ED50", "setting": "[2]", "value": 6, "unit": "mg/kg"}]}, {"smiles": "O=c1cc2c(nn1-c1ccc(Cl)cc1)-c1cccc(Cl)c1[S+]([O-])CC2", "note": "(centres unmarked) [Compound J, 8-chloro-2-(4-chlorophenyl)-5,6-dihydro-[1]benzothiepino[5,4-c]pyridazin-3(2H)-one 7-oxide]", "values": [{"measurement": "Ki", "setting": "[1]", "value": 0.011, "unit": "µM"}, {"measurement": "Potentiation of alcoholic effect ED50", "setting": "[3]", "value": "> 500", "unit": "mg/kg"}, {"measurement": "ED50", "setting": "[2]", "value": 0.67, "unit": "mg/kg"}, {"measurement": "minimal effective dose", "setting": "[4]", "value": "< 5", "unit": "mg/kg"}, {"measurement": "ED50", "setting": "[5]", "value": "> 500", "unit": "mg/kg"}, {"measurement": "Potentiation of narcotic effect ED50", "setting": "[6]", "value": "> 200", "unit": "mg/kg"}]}]}
